Here are results for six compounds from ChEMBL document CHEMBL1158397, “Polycyclic cage structures as carrier molecules for neuroprotective non-steroidal anti-inflammatory drugs” (Eur J Med Chem, 2009).

Series [1] is described as follows: Drug level in C57BL/6 mouse blood at 260.935 mg/kg, ip measured after 1 hr by LC-MS/MS analysis. It counts as ADME, organism-based. Details: dose 260.935 mg/kg, route intraperitoneal. Particulars: 260.94 mg/kg, read-out: Drug uptake.
Series [2] is described as follows: Drug level in C57BL/6 mouse brain at 260.935 mg/kg, ip measured after 1 hr by LC-MS/MS analysis. It counts as ADME, organism-based. Details: dose 260.935 mg/kg, route intraperitoneal. The following applies: 260.94 mg/kg, read-out: Drug uptake.
The nature of series [3]: Ratio of drug level in brain to blood in C57BL/6 mouse at 260.935 mg/kg, ip measured after 1 hr by LC-MS/MS analysis. Details: dose 260.935 mg/kg, route intraperitoneal. The following applies: 260.94 mg/kg. It counts as ADME, organism-based.
Series [4] has as its system Brain. In words: Antioxidant activity in Sprague-Dawley rat brain homogenate assessed as attenuation of toxin-induced lipid peroxidation at 1 mM by modified TBA assay. It counts as functional, tissue-based.
Series [5] deals with Brain. As to the kind of experiment: Drug level in C57BL/6 mouse brain assessed as salicylic acid at 150 mg/kg, ip measured after 1 hr by LC-MS/MS analysis. It counts as ADME, organism-based. Details: dose 150 mg/kg, route intraperitoneal. The following applies: in vivo.
The nature of series [6]: Ratio of drug level in brain to blood assessed as salicylic acid in C57BL/6 mouse at 150 mg/kg, ip measured after 1 hr by LC-MS/MS analysis. It counts as ADME, organism-based. Details: dose 150 mg/kg, route intraperitoneal.
Series [7] deals with Blood. As to the kind of experiment: Drug level in C57BL/6 mouse blood assessed as total salicylate at 150 mg/kg, ip measured after 1 hr by LC-MS/MS analysis. Also noted: dose 150 mg/kg, route intraperitoneal. Particulars: in vivo. It counts as ADME, organism-based.
Series [8] deals with Brain. As to the kind of experiment: Drug level in C57BL/6 mouse brain assessed as total salicylate at 150 mg/kg, ip measured after 1 hr by LC-MS/MS analysis. Particulars: in vivo. It counts as ADME, organism-based. Details: dose 150 mg/kg, route intraperitoneal.
Series [9] is described as follows: Ratio of drug level in brain to blood assessed as total salicylate in C57BL/6 mouse at 150 mg/kg, ip measured after 1 hr by LC-MS/MS analysis. It counts as ADME, organism-based. Details: dose 150 mg/kg, route intraperitoneal.
Series [10] can be described thus: Drug level in C57BL/6 mouse blood at 150 mg/kg, ip measured after 1 hr by LC-MS/MS analysis. It counts as ADME, organism-based. Details: dose 150 mg/kg, route intraperitoneal. Particulars: read-out: Drug uptake.
The nature of series [11]: Drug level in C57BL/6 mouse brain at 150 mg/kg, ip measured after 1 hr by LC-MS/MS analysis. It counts as ADME, organism-based. Details: dose 150 mg/kg, route intraperitoneal. The following applies: read-out: Drug uptake.
Series [12] can be described thus: Ratio of drug level in brain to blood in C57BL/6 mouse at 150 mg/kg, ip measured after 1 hr by LC-MS/MS analysis. Also noted: dose 150 mg/kg, route intraperitoneal. It counts as ADME, organism-based.
Series [13] deals with Blood. As to the kind of experiment: Drug level in C57BL/6 mouse blood assessed as salicylic acid at 150 mg/kg, ip measured after 1 hr by LC-MS/MS analysis. The following applies: in vivo. It counts as ADME, organism-based. Also noted: dose 150 mg/kg, route intraperitoneal.
Series [14] deals with Blood. As to the kind of experiment: Drug level in C57BL/6 mouse blood assessed as acetylsalicylic acid at 327.58 mg/kg, ip measured after 1 hr by LC-MS/MS analysis. It counts as ADME, organism-based. The following applies: in vivo. Also noted: dose 327.58 mg/kg, route intraperitoneal.
In series [15] the test system is Brain. In words: Drug level in C57BL/6 mouse brain assessed as acetylsalicylic acid at 327.58 mg/kg, ip measured after 1 hr by LC-MS/MS analysis. Particulars: in vivo. Details: dose 327.58 mg/kg, route intraperitoneal. It counts as ADME, organism-based.
A short description of series [16]: Ratio of drug level in brain to blood assessed as acetylsalicylic acid in C57BL/6 mouse at 327.58 mg/kg, ip measured after 1 hr by LC-MS/MS analysis. It counts as ADME, organism-based. Also noted: dose 327.58 mg/kg, route intraperitoneal.
For series [17], the system named is Blood. As to the kind of experiment: Drug level in C57BL/6 mouse blood assessed as acetylsalicylic acid at 260.935 mg/kg, ip measured after 1 hr by LC-MS/MS analysis. The following applies: in vivo, 260.94 mg/kg. Also noted: dose 260.935 mg/kg, route intraperitoneal. It counts as ADME, organism-based.
In series [18] the test system is Brain. In words: Drug level in C57BL/6 mouse brain assessed as acetylsalicylic acid at 260.935 mg/kg, ip measured after 1 hr by LC-MS/MS analysis. It counts as ADME, organism-based. Also noted: dose 260.935 mg/kg, route intraperitoneal. The following applies: in vivo, 260.94 mg/kg.
Series [19] can be described thus: Ratio of drug level in brain to blood assessed as acetylsalicylic acid in C57BL/6 mouse at 260.935 mg/kg, ip measured after 1 hr by LC-MS/MS analysis. It counts as ADME, organism-based. Also noted: dose 260.935 mg/kg, route intraperitoneal. Particulars: 260.94 mg/kg.
For series [20], the system named is Blood. In words: Drug level in C57BL/6 mouse blood assessed as ibuprofen at 305.08 mg/kg, ip measured after 1 hr by LC-MS/MS analysis. It counts as ADME, organism-based. Also noted: dose 305.08 mg/kg, route intraperitoneal. The following applies: in vivo.
The subject of series [21] is Brain. As to the kind of experiment: Drug level in C57BL/6 mouse brain assessed as ibuprofen at 305.08 mg/kg, ip measured after 1 hr by LC-MS/MS analysis. It counts as ADME, organism-based. Details: dose 305.08 mg/kg, route intraperitoneal. Particulars: in vivo.
Series [22] in a line: Ratio of drug level in brain to blood assessed as ibuprofen in C57BL/6 mouse at 305.08 mg/kg, ip measured after 1 hr by LC-MS/MS analysis. It counts as ADME, organism-based. Also noted: dose 305.08 mg/kg, route intraperitoneal.
In series [23] the test system is Blood. In words: Drug level in C57BL/6 mouse blood assessed as ibuprofen at 246.883 mg/kg, ip measured after 1 hr by LC-MS/MS analysis. It counts as ADME, organism-based. Details: dose 246.883 mg/kg, route intraperitoneal. Particulars: in vivo, 246.88 mg/kg.
Series [24] concerns Brain. In words: Drug level in C57BL/6 mouse brain assessed as ibuprofen at 246.883 mg/kg, ip measured after 1 hr by LC-MS/MS analysis. It counts as ADME, organism-based. Details: dose 246.883 mg/kg, route intraperitoneal. Particulars: in vivo, 246.88 mg/kg.
A short description of series [25]: Ratio of drug level in brain to blood assessed as ibuprofen in C57BL/6 mouse at 246.883 mg/kg, ip measured after 1 hr by LC-MS/MS analysis. Particulars: 246.88 mg/kg. It counts as ADME, organism-based. Also noted: dose 246.883 mg/kg, route intraperitoneal.

Active and inactive are the calls of the source. The calls are words filed in the database; no cut-off is given here.

Turning to `CC(C)Cc1ccc(C(C)C(=O)O)cc1` (stereo not drawn) [IBUPROFEN], the concentration at 1 h in [1] stood at 61.4 ng/mL; in [2] it was 52.5 ng/mL. The Kp – broadly, the ratio of the level in a tissue or fluid to that in plasma or blood – at 1 h in series [3] is 0.9. Further, the outcome with Brain [4] was Active.
Regarding `CC(=O)Oc1ccccc1C(=O)O` [ASPIRIN], the Drug uptake in the series on Brain [5] came out at 7.37 ng/mL; in the series with Blood [7], 41.45 ng/mL; in the series with Brain [8], 24.6 ng/mL; in the series on Blood [13], 6.95 ng/mL. In addition, the results for the Ratio in series [6] and in series [9] were 1.06 and 0.59, respectively. The outcome with Brain [4] was Active. Moreover, the values for the concentration at 1 h in series [10] and in [11] were 45.5 ng/mL and 22.5 ng/mL, respectively. Moreover, the Kp at 1 h in series [12] turned out to be 0.49.
On to `CC(=O)Oc1ccccc1C(=O)OC12C3C4CC5C6C4C1C6C1(OCCCN12)C53` (stereo not drawn), for which the Drug uptake was determined as 44.11 ng/mL in the series with Blood [14] and 59.03 ng/mL in the series on Brain [15]. Besides, in series [16], the Ratio is given as 1.34. In the series with Brain [4], the result was Active.
With `CC(=O)Oc1ccccc1C(=O)NC12CC3CC(CC(C3)C1)C2`, the concentration at 1 h in [1] came out at 17.4 ng/mL; in series [2], 8.58 ng/mL. For the same compound, the Kp at 1 h in series [3] worked out at 0.49. Further, the results for the Drug uptake in the series with Blood [17] and in the series on Brain [18] were 13.84 ng/mL and 6.81 ng/mL, respectively. The Ratio in series [19] was 0.49. Moreover, the result in the series on Brain [4] was Active.
For the compound `CC(C)Cc1ccc(C(C)C(=O)OC23C4C5CC6C7C5C2C7C2(OCCCN23)C64)cc1` (stereo not drawn), the Drug uptake was determined as 40.28 ng/mL with Blood [20] and 55.8 ng/mL in the series on Brain [21]. Also, in series [22], the Ratio was 1.39. Besides, in the series with Brain [4], the outcome was Active.
`CC(C)Cc1ccc(C(C)C(=O)NC23CC4CC(CC(C4)C2)C3)cc1` (stereo not drawn): the figures for the Drug uptake in the series with Blood [23] and with Brain [24] were 30.45 ng/mL and 11.83 ng/mL, respectively. The Ratio in series [25] is 0.39. In addition, the result in the series with Brain [4] was Active.
